Laboratory results published in patent publication US20100227826A1, “Stable Flavonoid Solutions” (priority 2005, published 2010).

Key:
[1] = molecular target: T1, tyrosinase (Homo sapiens, UniProt P14679); assay: Tyrosinase activity in living skin explant sections (L-DOPA method of Laidlaw and Blackberg); type: cell-based; settings: non-irradiated skin explants, topical gel 2 mg/cm^2, Day 5
T1 construct: Where tyrosinase is active, L-DOPA is oxidized, producing an observable black pigment in the melanocytes; from tissue; host or cells: living abdominal skin explants (melanocytes)
T1 sequence (P14679 19-529): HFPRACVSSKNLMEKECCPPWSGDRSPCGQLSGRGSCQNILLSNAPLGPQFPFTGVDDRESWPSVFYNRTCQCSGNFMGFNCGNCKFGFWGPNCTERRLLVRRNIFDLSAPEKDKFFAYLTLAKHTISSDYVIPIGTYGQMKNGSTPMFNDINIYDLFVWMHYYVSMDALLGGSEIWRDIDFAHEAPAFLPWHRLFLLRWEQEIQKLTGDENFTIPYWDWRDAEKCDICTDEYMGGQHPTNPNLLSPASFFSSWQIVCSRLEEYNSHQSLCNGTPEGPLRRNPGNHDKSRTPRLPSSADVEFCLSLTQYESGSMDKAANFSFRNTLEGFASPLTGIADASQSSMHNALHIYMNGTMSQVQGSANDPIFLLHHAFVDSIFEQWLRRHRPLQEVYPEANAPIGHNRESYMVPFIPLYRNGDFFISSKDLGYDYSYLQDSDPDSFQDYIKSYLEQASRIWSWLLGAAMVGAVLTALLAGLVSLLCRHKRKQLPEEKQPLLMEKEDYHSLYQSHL

[2] = tested on: melanin within the melanocytes; assay: Melanin deposits in melanocytes of skin explants, Fontana-Masson silver stain; type: cell-based, human; settings: Day 5
Experimental: (§1) Skin samples from an abdominal plastic surgery patient are placed in a specific explant survival medium BEM from Centre de Recherche Laboratoire BIO-EC (Clamart, France). Once daily, the living skin explants are irradiated with a Vilber Lourmat solar simulator RMX3W (Marne-la-Vallee, France) at a dose of 75 mJ/cm^2 within a wavelength range of 290-330 nm and a peak of 312 nm (UVB) for 80 seconds.
(§2) Five minutes following irradiation, the skin samples are treated with a topical application of 2 mg/cm^2 of a gel formulation comprising the Phytocytol™ BLM, a stable flavonoid solution according to the present invention. The gel formulation is made according to the following procedure: Three separate gels, each containing one of baicalin, luteolin and myricetin, are prepared according to the same procedure. In a main beaker, add DI Water, Germall Plus and Carbopol Ultrez-10. When Carbopol is dispersed add ¼ of the indicated amount of Neutrol TE. Add Polycast-3 and continue mixing. Add the flavonoid solution (A, B and C) until homogenous. Add the remaining Neutrol TE and mix. The resulting Baicalin Gel, Luteolin Gel and Myricetin Gel are mixed in equal parts to form a gel having a pH of 6.91 and a viscosity of 30,500 cps (LV4@12 rpm). […]

[3] = tested on: melanocyte dendricity; assay: Melanocyte dendricity in skin explant cryostat sections, Anti-Melan-A immunofluorescence; type: cell-based, human; settings: Day 5
Experimental: as §1, §2

OC[C@H]1O[C@@H](Oc2ccc(O)cc2)[C@H](O)[C@@H](O)[C@@H]1O [arbutin]
level of tyrosinase activity [1]: substantially greater compared to the arbutin-treated samples
melanin deposits ([2]; absence of UVB irradiation): low levels of melanin deposits
melanin deposits ([2]; after exposure to UVB irradiation): An increase in melanin deposits is not observed
level of melanocyte dendricity ([3]; after UVB irradiation, skin explants): low level of dendricity
level of melanocyte dendricity ([3]; non-UVB irradiated skin explants): low level of dendricity
